From patent US8916573B2, “Quinazoline-2,4-dione derivatives” (Actelion Pharmaceuticals Ltd., priority 2011, dated 2014)
Values after ≈ are worked out from the molar mass of the structure shown.

System: S. aureus 29213
Assay: Bacterial growth minimal inhibitory concentrations (microdilution, cation-adjusted Mueller-Hinton Broth, CLSI M7-A7)
Format: cell-based
Details: microdilution in cation-adjusted Mueller-Hinton Broth; for MIC: Staphylococcus aureus, 29213
Experimental: Bacterial Growth Minimal Inhibitory Concentrations: Minimal inhibitory concentrations (MICs; mg/l) were determined in cation-adjusted MuellerHinton Broth by a microdilution method following the description given in “Methods for Dilution Antimicrobial Susceptibility Tests for Bacteria that Grow Aerobically”, Approved standard, 7th ed., Clinical and Laboratory Standards Institute (CLSI) Document M7-A7, Wayne, Pa., USA, 2006. Typical antibacterial test results are given in Table 1 hereafter (MIC in mg/l).

| SMILES | MIC [µg/mL] | MIC for S. aureus 29213 [µg/mL] |
| --- | --- | --- |
| C=Cc1ccc2c(=O)n(CCC[C@@H]3CN(c4ccc5c(c4)NC(=O)CS5)C(=O)O3)c(=O)n(C)c2c1 [Example 47, 1-methyl-3-{3-[(R)-2-oxo-3-(3-oxo-3,4-dihydro-2H-benzo[1,4]-thiazin-6-yl)-oxazolidin-5-yl]-propyl}-7-vinyl-1H-quinazoline-2,4-dione] | 0.063 (≈ 0.128 µM) |  |
| Cn1c(=O)n(CCCC[C@@H]2CN(c3ccc4c(n3)NC(=O)CS4)C(=O)O2)c(=O)c2ccccc21 [Example 51, 1-methyl-3-{4-[(R)-2-oxo-3-(3-oxo-3,4-dihydro-2H-pyrido[3,2-b][1,4]thiazin-6-yl)-oxazolidin-5-yl]-butyl}-1H-quinazoline-2,4-dione] | ≤ 0.016 |  |
| Cn1c(=O)n(CCCC[C@@H]2CN(c3ccc4c(n3)NC(=O)CO4)C(=O)O2)c(=O)c2ccccc21 [Example 52, 1-methyl-3-{4-[(R)-2-oxo-3-(3-oxo-3,4-dihydro-2H-pyrido[3,2-b][1,4]oxazin-6-yl)-oxazolidin-5-yl]-butyl}-1H-quinazoline-2,4-dione] | 0.063 (≈ 0.135 µM) |  |
| O=C1CSc2ccc(N3C[C@@H](CNCCn4c(=O)[nH]c5ccccc5c4=O)OC3=O)nc2N1 [Example 53, 3-(2-{[(R)-2-oxo-3-(3-oxo-3,4-dihydro-2H-pyrido[3,2-b][1,4]thiazin-6-yl)-oxazolidin-5-ylmethyl]-amino}-ethyl)-1H-quinazoline-2,4-dione] | 0.5 (≈ 1.07 µM) |  |
| O=C1CSc2ccc(N3C[C@@H](CNCCn4c(=O)[nH]c5ccccc5c4=O)OC3=O)cc2N1 [Example 54, 3-(2-{[(R)-2-oxo-3-(3-oxo-3,4-dihydro-2H-benzo[1,4]thiazin-6-yl)-oxazolidin-5-ylmethyl]-amino}-ethyl)-1H-quinazoline-2,4-dione] | 1 (≈ 2.14 µM) |  |
| Cn1c(=O)n(CCNC[C@@H]2CN(c3ccc4c(n3)NC(=O)CS4)C(=O)O2)c(=O)c2ccccc21.O=CO [Example 55, 1-methyl-3-(2-{[(R)-2-oxo-3-(3-oxo-3,4-dihydro-2H-pyrido[3,2-b][1,4]thiazin-6-yl)-oxazolidin-5-ylmethyl]-amino}-ethyl)-1H-quinazoline-2,4-dione formate salt] | 0.031 |  |
| Cn1c(=O)n(CCNC[C@@H]2CN(c3ccc4c(c3)NC(=O)CS4)C(=O)O2)c(=O)c2ccccc21 [Example 56, 1-methyl-3-(2-{[(R)-2-oxo-3-(3-oxo-3,4-dihydro-2H-benzo[1,4]thiazin-6-yl)-oxazolidin-5-ylmethyl]-amino}-ethyl)-1H-quinazoline-2,4-dione] | 0.125 (≈ 0.26 µM) |  |
| Cc1cccc2c1c(=O)n(CCNC[C@@H]1CN(c3ccc4c(c3)NC(=O)CS4)C(=O)O1)c(=O)n2C [Example 57, 1,5-dimethyl-3-(2-{[(R)-2-oxo-3-(3-oxo-3,4-dihydro-2H-benzo[1,4]thiazin-6-yl)-oxazolidin-5-ylmethyl]-amino}-ethyl)-1H-quinazoline-2,4-dione] | ≤ 0.016 |  |
| Cc1cccc2c1c(=O)n(CCNC[C@H]1CN(c3ccc4c(n3)NC(=O)CS4)C(=O)O1)c(=O)n2C [Example 58, 1,5-dimethyl-3-(2-{[(S)-2-oxo-3-(3-oxo-3,4-dihydro-2H-pyrido[3,2-b][1,4]thiazin-6-yl)-oxazolidin-5-ylmethyl]-amino}-ethyl)-1H-quinazoline-2,4-dione] | ≤ 0.016 |  |
| Cc1cccc2[nH]c(=O)n(CCNC[C@@H]3CN(c4ccc5c(c4)NC(=O)CS5)C(=O)O3)c(=O)c12 [Example 59, 5-methyl-3-(2-{[(R)-2-oxo-3-(3-oxo-3,4-dihydro-2H-benzo[1,4]thiazin-6-yl)-oxazolidin-5-ylmethyl]-amino}-ethyl)-1H-quinazoline-2,4-dione] | 0.25 (≈ 0.519 µM) |  |
| Cc1cccc2c(=O)n(CCNC[C@@H]3CN(c4ccc5c(c4)NC(=O)CS5)C(=O)O3)c(=O)[nH]c12 [Example 60, 8-methyl-3-(2-{[(R)-2-oxo-3-(3-oxo-3,4-dihydro-2H-benzo[1,4]thiazin-6-yl)-oxazolidin-5-ylmethyl]-amino}-ethyl)-1H-quinazoline-2,4-dione] | 0.25 (≈ 0.519 µM) |  |
| Cn1c(=O)n(CCNC[C@@H]2CN(c3ccc4c(c3)NC(=O)CS4)C(=O)O2)c(=O)c2cccc(Cl)c21 [Example 61, 8-chloro-1-methyl-3-(2-{[(R)-2-oxo-3-(3-oxo-3,4-dihydro-2H-benzo[1,4]thiazin-6-yl)-oxazolidin-5-ylmethyl]-amino}-ethyl)-1H-quinazoline-2,4-dione] | ≤ 0.016 |  |
| Cn1c(=O)n(CCNC[C@H]2CN(c3ccc4c(n3)NC(=O)CS4)C(=O)O2)c(=O)c2cccc(Cl)c21 [Example 62, 8-chloro-1-methyl-3-(2-{[(S)-2-oxo-3-(3-oxo-3,4-dihydro-2H-pyrido[3,2-b][1,4]thiazin-6-yl)-oxazolidin-5-ylmethyl]-amino}-ethyl)-1H-quinazoline-2,4-dione] | ≤ 0.016 |  |
| O=C1CSc2ccc(N3C[C@@H](CNCCn4c(=O)[nH]c5c(Cl)cccc5c4=O)OC3=O)cc2N1 [Example 64, 8-chloro-3-(2-{[(R)-2-oxo-3-(3-oxo-3,4-dihydro-2H-benzo[1,4]thiazin-6-yl)-oxazolidin-5-ylmethyl]-amino}-ethyl)-1H-quinazoline-2,4-dione] | 0.25 (≈ 0.498 µM) |  |
| COC(=O)/C=C/c1ccc2c(=O)n(CCNC[C@H]3CN(c4ccc5c(c4)NC(=O)CS5)C(=O)O3)c(=O)n(C)c2c1 [Example 65, (E)-3-[1-methyl-2,4-dioxo-3-(2-{[(S)-2-oxo-3-(3-oxo-3,4-dihydro-2H-benzo[1,4]thiazin-6-yl)-oxazolidin-5-ylmethyl]-amino}-ethyl)-1,2,3,4-tetrahydro-quinazolin-7-yl]-acrylic acid methyl ester] | 0.125 (≈ 0.221 µM) |  |
| O=C1CSc2ccc(N3C[C@@H](CNCCn4c(=O)c5cccc6c5n(c4=O)CCC6)OC3=O)cc2N1 [Example 66, 2-(2-{[(R)-2-oxo-3-(3-oxo-3,4-dihydro-2H-benzo[1,4]thiazin-6-yl)-oxazolidin-5-ylmethyl]-amino}-ethyl)-6,7-dihydro-5H-pyrido[3,2,1-#]quinazoline-1,3-dione] |  | 0.031 |
| O=C1CSc2ccc(N3C[C@H](CNCCn4c(=O)c5cccc6c5n(c4=O)CCC6)OC3=O)nc2N1 [Example 67, 2-(2-{[(S)-2-oxo-3-(3-oxo-3,4-dihydro-2H-pyrido[3,2-b][1,4]thiazin-6-yl)-oxazolidin-5-ylmethyl]-amino}-ethyl)-6,7-dihydro-5H-pyrido[3,2,1-ij]quinazoline-1,3-dione] | ≤ 0.016 |  |
| CC(=O)N(CCn1c(=O)c2ccccc2n(C)c1=O)C[C@@H]1CN(c2ccc3c(n2)NC(=O)CS3)C(=O)O1 [Example 68, N-[2-(1-methyl-2,4-dioxo-1,4-dihydro-2H-quinazolin-3-yl)-ethyl]-N-[(R)-2-oxo-3-(3-oxo-3,4-dihydro-2H-pyrido[3,2-b][1,4]thiazin-6-yl)-oxazolidin-5-ylmethyl]-acetamide] | 0.25 (≈ 0.477 µM) |  |
| Cn1c(=O)n(CCNC[C@H]2CN(c3ccc4c(n3)NC(=O)CO4)C(=O)O2)c(=O)c2cccc(Cl)c21 [Example 69, 8-chloro-1-methyl-3-(2-{[(S)-2-oxo-3-(3-oxo-3,4-dihydro-2H-pyrido[3,2-b][1,4]oxazin-6-yl)-oxazolidin-5-ylmethyl]-amino}-ethyl)-1H-quinazoline-2,4-dione] | 0.031 (≈ 0.0619 µM) |  |
